Here are results for six compounds from article PMC12597212, “Biaryl Phosphate‐Based Inhibitors of the Transcription Factor STAT4” (Chemmedchem, 2025).

The structures appear in SMILES notation.

Common to all, as to type: binding
The target in one experiment is T1, STAT5b (Homo sapiens, UniProt P51692).
T1 sequence (P51692 1-787): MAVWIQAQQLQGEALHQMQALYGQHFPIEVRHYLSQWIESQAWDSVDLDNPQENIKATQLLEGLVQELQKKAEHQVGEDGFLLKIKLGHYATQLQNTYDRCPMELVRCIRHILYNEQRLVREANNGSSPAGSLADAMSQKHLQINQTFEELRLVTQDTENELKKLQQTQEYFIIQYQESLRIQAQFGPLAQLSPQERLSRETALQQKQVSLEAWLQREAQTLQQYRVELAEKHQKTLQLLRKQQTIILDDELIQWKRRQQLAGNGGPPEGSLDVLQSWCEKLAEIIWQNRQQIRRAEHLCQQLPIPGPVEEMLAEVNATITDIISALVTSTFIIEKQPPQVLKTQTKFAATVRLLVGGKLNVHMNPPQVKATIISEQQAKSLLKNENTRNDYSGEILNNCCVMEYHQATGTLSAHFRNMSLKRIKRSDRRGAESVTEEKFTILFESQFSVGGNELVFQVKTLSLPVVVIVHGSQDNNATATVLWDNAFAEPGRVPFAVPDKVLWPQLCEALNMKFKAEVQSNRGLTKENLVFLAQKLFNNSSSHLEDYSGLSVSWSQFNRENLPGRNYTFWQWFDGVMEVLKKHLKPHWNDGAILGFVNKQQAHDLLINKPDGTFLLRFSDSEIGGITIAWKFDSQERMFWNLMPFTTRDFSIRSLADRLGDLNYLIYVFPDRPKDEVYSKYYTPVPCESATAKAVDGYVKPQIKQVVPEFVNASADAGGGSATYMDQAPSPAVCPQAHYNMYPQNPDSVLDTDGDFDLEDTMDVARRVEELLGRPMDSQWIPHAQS
The experiment is described as follows: Competitive fluorescence polarization (FP) assay, STAT5b. The note with it: for IC50: 59-85 nM STAT5b, 10 nM tracer peptide; for Ki: Ki calculated from IC50, mean ± SD, n = 3; for inhibition at 100 µM: compound at 100 µM. Here is the method:
(§1) Fluorescence polarization assays
(§2) STAT4; 5-carboxyfluorescein-GpYDKPHVL for STAT1; 5-carboxyfluorescein-GpYLPQTV- […]
(§3) fluorescent-labeled peptide was added. Samples were transferred to 384-well microtiter plates […]
(§4) Experiments were carried out in triplicate. Percent binding was calculated based on a logarithmic curve fit using OriginPro 8G software. Conversion of IC50 values to Ki-values was […]
(§5) Error bars represent standard deviations. […]
(§6) Experiments were carried out in triplicate. […]

A further experiment deals with T2, STAT5a (Homo sapiens, UniProt P42229).
T2 sequence (P42229 1-794): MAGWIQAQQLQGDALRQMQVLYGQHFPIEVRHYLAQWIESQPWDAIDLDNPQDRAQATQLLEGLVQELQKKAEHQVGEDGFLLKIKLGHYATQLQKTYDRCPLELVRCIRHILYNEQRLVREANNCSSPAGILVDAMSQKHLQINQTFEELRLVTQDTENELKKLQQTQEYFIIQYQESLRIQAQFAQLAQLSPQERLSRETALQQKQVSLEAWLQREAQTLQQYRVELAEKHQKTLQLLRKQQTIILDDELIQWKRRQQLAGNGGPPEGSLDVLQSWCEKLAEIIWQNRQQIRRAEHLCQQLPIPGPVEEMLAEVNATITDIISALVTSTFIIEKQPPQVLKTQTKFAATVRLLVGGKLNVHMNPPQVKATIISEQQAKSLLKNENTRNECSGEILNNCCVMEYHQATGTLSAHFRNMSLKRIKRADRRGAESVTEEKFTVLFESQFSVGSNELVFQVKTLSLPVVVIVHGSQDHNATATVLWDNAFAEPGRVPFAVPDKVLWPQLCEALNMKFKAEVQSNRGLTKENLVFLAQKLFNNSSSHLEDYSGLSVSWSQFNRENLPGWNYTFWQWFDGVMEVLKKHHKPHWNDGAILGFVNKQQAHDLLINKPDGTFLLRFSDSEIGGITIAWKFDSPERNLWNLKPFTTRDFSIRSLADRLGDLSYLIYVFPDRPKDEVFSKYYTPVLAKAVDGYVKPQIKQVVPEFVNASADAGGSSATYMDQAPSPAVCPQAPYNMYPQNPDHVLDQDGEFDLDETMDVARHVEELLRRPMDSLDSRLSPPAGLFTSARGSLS
Briefly: Competitive fluorescence polarization (FP) assay, STAT5a. The note with it: for IC50: 125-177 nM STAT5a, 10 nM tracer peptide; for Ki: Ki calculated from IC50, mean ± SD, n = 3. Here is the method:
as §1, §2, §3, §4, §5, §6

The next experiment concerns the target T3, STAT4 SH2 domain (Homo sapiens, UniProt Q14765).
T3 sequence (Q14765 1-748): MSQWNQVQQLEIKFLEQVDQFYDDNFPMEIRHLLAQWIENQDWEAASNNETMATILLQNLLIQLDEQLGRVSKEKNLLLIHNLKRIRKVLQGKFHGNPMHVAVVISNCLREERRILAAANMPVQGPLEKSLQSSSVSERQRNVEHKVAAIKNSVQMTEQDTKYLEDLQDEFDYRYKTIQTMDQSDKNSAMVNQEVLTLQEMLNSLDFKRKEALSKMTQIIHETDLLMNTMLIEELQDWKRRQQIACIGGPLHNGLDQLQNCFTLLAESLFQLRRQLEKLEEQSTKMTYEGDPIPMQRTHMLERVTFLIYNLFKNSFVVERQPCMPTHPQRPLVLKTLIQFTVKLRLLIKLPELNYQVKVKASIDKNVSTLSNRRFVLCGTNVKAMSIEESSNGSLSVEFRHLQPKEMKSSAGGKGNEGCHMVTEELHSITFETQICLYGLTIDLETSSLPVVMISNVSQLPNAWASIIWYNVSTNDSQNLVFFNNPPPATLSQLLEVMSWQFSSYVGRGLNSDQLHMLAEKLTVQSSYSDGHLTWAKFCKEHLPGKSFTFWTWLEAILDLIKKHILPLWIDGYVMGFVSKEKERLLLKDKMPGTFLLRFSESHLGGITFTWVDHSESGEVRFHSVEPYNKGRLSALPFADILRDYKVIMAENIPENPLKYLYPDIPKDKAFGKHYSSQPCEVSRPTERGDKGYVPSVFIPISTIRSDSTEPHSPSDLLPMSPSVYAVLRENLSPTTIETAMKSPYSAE
The experiment is described as follows: Competitive fluorescence polarization (FP) assay, STAT4. The note with it: for IC50: 28 nM STAT4, 10 nM tracer peptide; for Ki: Ki calculated from IC50, mean ± SD, n = 3. The protocol: as §1
Competitive fluorescence polarization assays were carried as previously described.[1] Proteins […]
fluorescent-labeled peptides were used as tracers: 5-carboxyfluorescein-GpYLPQNID-OH for STAT4; 5-carboxyfluorescein-GpYDKPHVL for STAT1; 5-carboxyfluorescein-GpYLPQTV-NH2 for STAT3; 5-carboxyfluorescein-GpYLVLDKW for STAT5a/b, and 5-carboxyfluorescein- […]
mM Tris (pH 8.0), 50 mM NaCl, 1 mM EDTA, 1 mM DTT, 0.1 % Nonidet P-40 substitute, 2 %
DMSO. Proteins and test compound were incubated for 1 h at room temperature before the […]
(1 picture or pasted object on this page, not shown here) […]
fluorescent-labeled peptide was added. Samples were transferred to 384-well microtiter plates and fluorescence polarization was read after an additional 60 min of incubation time.
Experiments were carried out in triplicate. Percent binding was calculated based on a logarithmic curve fit using OriginPro 8G software. Conversion of IC50 values to Ki-values was achieved using the published equation[2] embedded in the corresponding Excel spread sheet […]
https://websites.umich.edu/~shaomengwanglab/software/calc_ki/ind ex.html.
as §5, §6

`O=P(O)(O)Oc1ccc2c(c1)Cc1ccccc1-2` [compound 11]: the IC50 – broadly, the midpoint of a concentration-inhibition curve – was 101 µM on STAT5b, 43 µM on STAT5a and 1.52 µM at STAT4 SH2 domain. Moreover, the Ki (commonly the dissociation constant of the complex between target and ligand, obtained from inhibition or displacement) was 49 ± 6 µM at STAT5b, 21 ± 1 µM at STAT5a and 0.61 ± 0.03 µM on STAT4 SH2 domain.

Consider `O=P(O)(O)Oc1ccc2c(c1)oc1ccccc12` [compound 12], for which, at STAT5b, the inhibition (in general, the percentage by which the read-out fell short of the control) at 100 µM was 49 ± 1%. Further, the values for the IC50 at STAT5a and on STAT4 SH2 domain were 55 µM and 1.78 µM, respectively. Besides, the values for the Ki on STAT5a and on STAT4 SH2 domain were 27 ± 1 µM and 0.71 ± 0.08 µM, respectively.

As to `O=P(O)(O)Oc1ccc(-c2cccs2)cc1` [8b], the values for the IC50 on STAT5b, on STAT5a and at STAT4 SH2 domain were 16.8 µM, 14.8 µM and 1.09 µM, respectively. Further, the Ki is 8.2 ± 0.4 µM at STAT5b, 7.3 ± 0.9 µM on STAT5a and 0.5 ± 0.03 µM at STAT4 SH2 domain.

With `O=P(O)(O)Oc1ccc(-c2ccsc2)cc1` [8a], the IC50 was 47 µM on STAT5b, 41 µM on STAT5a and 1.2 µM at STAT4 SH2 domain. For the same compound, the Ki is 23 ± 1 µM at STAT5b, 20 ± 0.2 µM at STAT5a and 0.56 ± 0.06 µM at STAT4 SH2 domain.

`O=P(O)(O)Oc1ccc(-c2nccs2)cc1` [8c]: the inhibition at 100 µM at STAT5b was found to be 26 ± 2%. Also, the inhibition at 200 µM at STAT5b (compound at 200 µM) was determined as 45 ± 1%. At STAT5a, the IC50 amounted to 122 µM and the Ki is 61 ± 3 µM. On STAT4 SH2 domain, the IC50 turned out to be 8.8 µM and the Ki was 4.1 ± 0.2 µM.

For `Cc1cc(-c2ccc(OP(=O)(O)O)c(F)c2)cs1` [8f], the IC50 amounted to 36 µM at STAT5b, 28 µM on STAT5a and 0.37 µM on STAT4 SH2 domain. The Ki at STAT5b was 18 ± 1 µM; at STAT5a, 14 ± 1 µM; on STAT4 SH2 domain it was 0.18 ± 0.03 µM.
